Columns and labels:
[1] = test system: B2M; assay: B2M editing in mouse liver by NGS after i.v. LNP delivery of Cas9 mRNA and sgRNA; format: in vivo; settings: CD-1 female mice; for % Editing B2M in mouse liver: 7 days post-dose, G650 1:1; for Editing (%) of B2M in mouse liver: Example 52: LNP single dose 0.1 mg/kg i.v., sgRNA G650:Cas9 mRNA 1:1, NGS
Procedure: Preparations of various LNP compositions were prepared with amine lipids. In assays for percent liver editing in mice, Cas9 mRNA and chemically modified sgRNA were formulated in LNPs, at either a 1:1 w/w ratio or a 1:2 w/w ratio. LNPs are formulated with a composition of a given ionizable lipid (e.g. an amine lipid), DSPC, cholesterol, and PEG-2k-DMG, with a 6.0 N:P ratio.
LNPs were administered to mice by a single dose at 0.1 mg/kg, unless otherwise noted and genomic DNA was isolated for NGS analysis as described below.
CD-1 female mice, ranging from 6-10 weeks of age were used in each study. Animals were weighed and grouped according to body weight for preparing dosing solutions based on group average weight. LNPs were dosed via the lateral tail vein in a volume of 0.2 mL per animal (approximately 10 mL per kilogram body weight). The animals were periodically observed post dose for adverse effects for at least 24 hours post dose. Animals were euthanized at 6 or 7 days by exsanguination via cardiac puncture under isoflurane anesthesia. Blood was collected into serum separator tubes or into tubes containing buffered sodium citrate for plasma as described herein. For studies involving in vivo editing, liver tissue was collected from each animal for DNA extraction and analysis.
Cohorts of mice were measured for liver editing by Next-Generation Sequencing (NGS).
In brief, to quantitatively determine the efficiency of editing at the target location in the genome, genomic DNA was isolated and deep sequencing was utilized to identify the presence of insertions and deletions introduced by gene editing.
PCR primers were designed around the target site (e.g., B2M), and the genomic area of interest was amplified. Additional PCR was performed according to the manufacturer's protocols (Illumina) to add the necessary chemistry for sequencing. The amplicons were sequenced on an Illumina MiSeq instrument. The reads were aligned to the […] after eliminating those having low quality scores. The resulting files containing the reads were mapped to the reference genome (BAM files), where reads that overlapped the target region of interest were selected and the number of wild type reads versus the number of reads which contain an insertion, substitution, or deletion was calculated.
The editing percentage (e.g., the “editing efficiency” or “percent editing”) is defined as the total number of sequence reads with insertions or deletions over the total number of sequence reads, including wild type.
CD-1 female mice were dosed i.v. at 0.1 mpk or 0.3 mpk. […] For animals dosed with G282 targeting TTR, blood and the liver were collected and serum TTR and editing were measured. For animals dosed with G650 targeting B2M, liver was collected and editing was measured.

[2] = test system: TTR; assay: Transthyretin (TTR) ELISA analysis of mouse serum after LNP dosing; format: in vivo; settings: 7 days post-dose
How it was run: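 Female CD-1 mice aged 6-10 weeks were grouped by body weight and given LNPs by lateral tail vein injection (0.2 mL per animal, about 10 mL per kilogram). Mice were bled by cardiac puncture under isoflurane into serum separator tubes. Serum was diluted 10,000-fold for the 0.1 mpk dose, and total TTR was quantified with a Mouse Prealbumin (Transthyretin) ELISA Kit following the kit directions.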

[3] = test system: TTR; assay: TTR editing in mouse liver by NGS after i.v. LNP delivery of Cas9 mRNA and sgRNA; format: in vivo; settings: CD-1 female mice, 7 days post-dose
How it was run: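 Cas9 mRNA and chemically modified sgRNA were co-formulated in LNPs made of an ionizable amine lipid, DSPC, cholesterol and PEG-2k-DMG at a 6.0 N:P ratio. CD-1 female mice aged 6-10 weeks received tail-vein injections of 0.2 mL. Liver genomic DNA was then amplified around the target site and sequenced on an Illumina MiSeq, with editing calculated as indel-containing reads over total reads.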

[4] = pKa measurement of unformulated amine lipid (fluorescence, method of Jayaraman et al.); format: physicochemical; settings: 100 μM in 0.1 M phosphate buffer pH 4.5-9.0
Procedure: The pKa of each amine lipid was determined according to the method in Jayaraman, et al. (Angewandte Chemie, 2012) with the following adaptations. […] Lipid was diluted to 100 μM in 0.1 M phosphate buffer (Boston Bioproducts) where the pH ranged from 4.5-9.0. Fluorescence intensity was measured using excitation and emission wavelengths of 321 nm and 448 nm.

[5] = LNP average particle size and polydispersity by dynamic light scattering (Malvern Zetasizer); format: physicochemical; settings: Table 3, Example 52: LNP, Cas9 mRNA + sgRNA (G650) 1:1 w/w, N:P 6.0
Text: The LNPs have a size of about 1 to about 1,000 nm, about 10 to about 500 nm, about 20 to about 500 nm, in a sub-embodiment about 50 to about 400 nm, in a sub-embodiment about 50 to about 300 nm, in a sub-embodiment about 50 to about 200 nm, and in a sub-embodiment about 50 to about 150 nm, and in another sub-embodiment about 60 to about 120 nm. Preferably, the LNPs have a size from about 60 nm to about 100 nm. The average sizes (diameters) of the fully formed LNP, may be measured by dynamic light scattering on a Malvern Zetasizer. The LNP sample is diluted in phosphate buffered saline (PBS) so that the count rate is approximately 200-400 kcps. The data is presented as a weighted average of the intensity measure.
The LNPs disclosed herein have a size (e.g. Z-average diameter) of about 1 to about 250 nm. In some embodiments, the LNPs have a size of about 10 to about 200 nm. In further embodiments, the LNPs have a size of about 20 to about 150 nm. In some embodiments, the LNPs have a size of about 50 to about 150 nm. In some embodiments, the LNPs have a size of about 50 to about 100 nm. In some embodiments, the LNPs have a size of about 50 to about 120 nm. In some embodiments, the LNPs have a size of about 60 to about 100 nm. In some embodiments, the LNPs have a size of about 75 to about 150 nm. In some embodiments, the LNPs have a size of about 75 to about 120 nm. In some embodiments, the LNPs have a size of about 75 to about 100 nm. Unless indicated otherwise, all sizes referred to herein are the average sizes (diameters) of the fully formed nanoparticles, as measured by dynamic light scattering on a Malvern Zetasizer. The nanoparticle sample is diluted in phosphate buffered saline (PBS) so that the count rate is approximately 200-400 kcps. The data is presented as a weighted-average of the intensity measure (Z-average diameter).
Dynamic Light Scattering (“DLS”) is used to characterize the polydispersity index (“pdi”) and size of the LNPs of the present disclosure. DLS measures the scattering of light that results from subjecting a sample to a light source. PDI, as determined from DLS measurements, represents the distribution of particle size (around the mean particle size) in a population, with a perfectly uniform population having a PDI of zero.
LNP compositions are analyzed for average particle size, polydispersity index (pdi), total RNA content, encapsulation efficiency of RNA, and zeta potential. LNP compositions may be further characterized by lipid analysis, AF4-MALS, NTA, and/or cryo-EM. Average particle size and polydispersity are measured by dynamic light scattering (DLS) using a Malvern Zetasizer DLS instrument. LNP samples were diluted with PBS buffer prior to being measured by DLS. Z-average diameter which is an intensity-based measurement of average particle size was reported along with number average diameter and pdi. A Malvern Zetasizer instrument is also used to measure the zeta potential of the LNP. Samples are diluted 1:17 (50 μL into 800 μL) in 0.1×PBS, pH 7.4 prior to measurement.

[6] = RNA encapsulation efficiency of LNP (Ribogreen fluorescence assay); format: physicochemical; settings: Table 3, Example 52: LNP, Cas9 mRNA + sgRNA (G650) 1:1 w/w, N:P 6.0; Compound 19 50/9/38/3, others 50/10/38.5/1.5
Procedure: A fluorescence-based assay (Ribogreen®, ThermoFisher Scientific) is used to determine total RNA concentration and free RNA. Encapsulation efficiency is calculated as (Total RNA−Free RNA)/Total RNA. LNP samples are diluted appropriately with 1× TE buffer containing 0.2% Triton-X 100 to determine total RNA or 1× TE buffer to determine free RNA. Standard curves are prepared by utilizing the starting RNA solution used to make the compositions and diluted in 1× TE buffer+/−0.2% Triton-X 100. Diluted RiboGreen® dye (according to the manufacturer's instructions) is then added to each of the standards and samples and allowed to incubate for approximately 10 minutes at room temperature, in the absence of light. A SpectraMax M5 Microplate Reader (Molecular Devices) is used to read the samples with excitation, auto cutoff and emission wavelengths set to 488 nm, 515 nm, and 525 nm respectively. Total RNA and free RNA are determined from the appropriate standard curves.
Encapsulation efficiency is calculated as (Total RNA−Free RNA)/Total RNA. The same procedure may be used for determining the encapsulation efficiency of a DNA-based cargo component. For single-strand DNA Oligreen Dye may be used, and for double-strand DNA, Picogreen Dye.

[7] = Example 61: 0.1 mpk i.v., G282 1:1

| Compound | % Editing B2M in mouse liver ([1]; Example 54: 0.1 mpk i.v.) [%] | % Editing B2M in mouse liver ([1]; Example 54: 0.3 mpk i.v.) [%] | Serum TTR [2, 7] [µg/mL] | response vs control in vivo at 0.1 mg/kg ([2]; Mus musculus, iv, 168 h, Example 61: 0.1 mpk i.v., G282 1:1, read-out: Serum TTR % TSS) [%] | Editing Mean % Indel [3, 7] [%] | pKa [4] | Editing (%) of B2M in mouse liver [1] [%] | Serum TTR ([2]; Example 56: 0.1 mpk i.v., G282) [µg/mL] | Serum TTR (% TSS) ([2]; Example 56: 0.1 mpk i.v., G282) | Editing % ([3]; Example 56: 0.1 mpk i.v., G282) [%] | Num Ave Size (nm) [5] [nm] | PDI [5] | Z-Ave Size (nm) [5] [nm] | Encapsulation (%) [6] [%] |
| --- | --- | --- | --- | --- | --- | --- | --- | --- | --- | --- | --- | --- | --- | --- |
| CCCCCCCCCOC(=O)CCCCCCCN(CCO)CCCCCCCCCC(OCCCCCCC)OCCCCCCC [Compound 4, nonyl 8-[10, 10-diheptoxydecyl(2-hydroxyethyl)amino]octanoate] | 29 | 57 | 333 | 26 | 46.7 | 7.04 |  |  |  |  |  |  |  |  |
| CCCCCCCCCOC(=O)CCCCCCCN(CCO)CCCCCCCCCC(OCCCCCCCC)OCCCCCCCC [Compound 5] |  |  |  |  |  | 7.08 | 13.2 | 738 | 92 | 9 |  |  |  |  |
| CCCCCCCCCCOC(CCCCCCCN(CCO)CCCCCCCC(=O)OCCCCCCCCC)OCCCCCCCCCC [Compound 3, nonyl 8-[8,8-didecoxyoctyl(2-hydroxyethyl)amino]octanoate] |  |  |  |  |  | 6.19 | 8.8 |  |  |  | 57.41 | 0.056 | 75.79 | 98 |
